# Measurements as given in ChEMBL document CHEMBL4049405, “Investigation on cellular uptake and pharmacodynamics of DOCK2-inhibitory peptides conjugated with cell-penetrating peptides” (Bioorg Med Chem, 2017).
# Activity calls are given as the source filed them. No cut-off for these calls is given here. Positions of bridges follow the written chain, without caps; N, C: chain ends. Non-standard residues stand in square brackets, D forms with d. Residues, ends and D or L forms follow the SMILES beside them. *: point of attachment. X2 = CC(=O)[C@H]1CSC(c2nc3ccc(OC(=O)OCCCS*)cc3s2)=N1; Nle = CCCC[C@H](N)C(=O)O
# Columns and labels:
# [1] = molecular target: T1, Dedicator of cytokinesis protein 2 (Homo sapiens, UniProt Q92608); test: Inhibition of GST-fused Rac1 (unknown origin) binding to recombinant N-terminal trigger factor/C-terminal SBP-tagged DOCK2 DHR-2 binding domain (unknown origin) expressed in mammalian cells assessed as reduction in Rac GEF activity pretreated for 1 hr followed by GST-fused Rac1 addition after 1 hr by ELISA; format: cell-based
# [2] = Cytotoxicity against HEK293T cells assessed as cell viability at 50 uM by CellTiter-Glo assay relative to control; settings: human
# [3] = Drug uptake in HEK293T cells expressing luciferase reporter gene at 50 uM measured every 3 mins for 60 mins by luminescence assay relative to 50 uM luciferin; format: ADME, cell-based; settings: human, hek-293t, 1 h
# in vitro [4] = settings: human, HEK293T cells
# Description: Cytotoxicity against HEK293T cells assessed as cell viability at 25 uM by CellTiter-Glo assay relative to control
# in vitro [5] = settings: human, HEK293T cells; remark: listed apart in the source
# Description: Cytotoxicity against HEK293T cells assessed as cell viability at 6.3 uM by CellTiter-Glo assay relative to control
# in vitro [6] = settings: human, HEK293T cells; remark: listed apart in the source
# Description: Cytotoxicity against HEK293T cells assessed as cell viability at 12.5 uM by CellTiter-Glo assay relative to control
# Mino [7] = test: (§1) Antimigratory activity against human Mino cells assessed as inhibition of S1P stimulated cell migration at 10 uM measured after 30 mins by Cell-titer Glo assay relative to control; format: functional
# [8] = molecular target: T1, Dedicator of cytokinesis protein 2; test: Inhibition of Rac1 binding to biotinylated DOCK2 (unknown origin) by ELISA
# Mino [9] = test: Antimigratory activity against human Mino cells assessed as inhibition of S1P stimulated cell migration at 1.1 uM measured after 30 mins by Cell-titer Glo assay; format: functional, cell-based
# Mino [10] = test: (§2) Antimigratory activity against human Mino cells assessed as inhibition of S1P stimulated cell migration at 3.3 uM measured after 30 mins by Cell-titer Glo assay relative to control; format: functional
# [11] = as §1; format: functional; settings: 0.5 h
# [12] = as §2; format: functional; settings: 0.5 h
# [13] = molecular target: T1, Dedicator of cytokinesis protein 2; test: Inhibition of Rac1 binding to DOCK2 (unknown origin) by ELISA
# [14] = molecular target: T1, Dedicator of cytokinesis protein 2; test: Inhibition of DOCK2 (unknown origin) GEF activity
# T1 sequence (Q92608 whole entry, the tested form may be a part): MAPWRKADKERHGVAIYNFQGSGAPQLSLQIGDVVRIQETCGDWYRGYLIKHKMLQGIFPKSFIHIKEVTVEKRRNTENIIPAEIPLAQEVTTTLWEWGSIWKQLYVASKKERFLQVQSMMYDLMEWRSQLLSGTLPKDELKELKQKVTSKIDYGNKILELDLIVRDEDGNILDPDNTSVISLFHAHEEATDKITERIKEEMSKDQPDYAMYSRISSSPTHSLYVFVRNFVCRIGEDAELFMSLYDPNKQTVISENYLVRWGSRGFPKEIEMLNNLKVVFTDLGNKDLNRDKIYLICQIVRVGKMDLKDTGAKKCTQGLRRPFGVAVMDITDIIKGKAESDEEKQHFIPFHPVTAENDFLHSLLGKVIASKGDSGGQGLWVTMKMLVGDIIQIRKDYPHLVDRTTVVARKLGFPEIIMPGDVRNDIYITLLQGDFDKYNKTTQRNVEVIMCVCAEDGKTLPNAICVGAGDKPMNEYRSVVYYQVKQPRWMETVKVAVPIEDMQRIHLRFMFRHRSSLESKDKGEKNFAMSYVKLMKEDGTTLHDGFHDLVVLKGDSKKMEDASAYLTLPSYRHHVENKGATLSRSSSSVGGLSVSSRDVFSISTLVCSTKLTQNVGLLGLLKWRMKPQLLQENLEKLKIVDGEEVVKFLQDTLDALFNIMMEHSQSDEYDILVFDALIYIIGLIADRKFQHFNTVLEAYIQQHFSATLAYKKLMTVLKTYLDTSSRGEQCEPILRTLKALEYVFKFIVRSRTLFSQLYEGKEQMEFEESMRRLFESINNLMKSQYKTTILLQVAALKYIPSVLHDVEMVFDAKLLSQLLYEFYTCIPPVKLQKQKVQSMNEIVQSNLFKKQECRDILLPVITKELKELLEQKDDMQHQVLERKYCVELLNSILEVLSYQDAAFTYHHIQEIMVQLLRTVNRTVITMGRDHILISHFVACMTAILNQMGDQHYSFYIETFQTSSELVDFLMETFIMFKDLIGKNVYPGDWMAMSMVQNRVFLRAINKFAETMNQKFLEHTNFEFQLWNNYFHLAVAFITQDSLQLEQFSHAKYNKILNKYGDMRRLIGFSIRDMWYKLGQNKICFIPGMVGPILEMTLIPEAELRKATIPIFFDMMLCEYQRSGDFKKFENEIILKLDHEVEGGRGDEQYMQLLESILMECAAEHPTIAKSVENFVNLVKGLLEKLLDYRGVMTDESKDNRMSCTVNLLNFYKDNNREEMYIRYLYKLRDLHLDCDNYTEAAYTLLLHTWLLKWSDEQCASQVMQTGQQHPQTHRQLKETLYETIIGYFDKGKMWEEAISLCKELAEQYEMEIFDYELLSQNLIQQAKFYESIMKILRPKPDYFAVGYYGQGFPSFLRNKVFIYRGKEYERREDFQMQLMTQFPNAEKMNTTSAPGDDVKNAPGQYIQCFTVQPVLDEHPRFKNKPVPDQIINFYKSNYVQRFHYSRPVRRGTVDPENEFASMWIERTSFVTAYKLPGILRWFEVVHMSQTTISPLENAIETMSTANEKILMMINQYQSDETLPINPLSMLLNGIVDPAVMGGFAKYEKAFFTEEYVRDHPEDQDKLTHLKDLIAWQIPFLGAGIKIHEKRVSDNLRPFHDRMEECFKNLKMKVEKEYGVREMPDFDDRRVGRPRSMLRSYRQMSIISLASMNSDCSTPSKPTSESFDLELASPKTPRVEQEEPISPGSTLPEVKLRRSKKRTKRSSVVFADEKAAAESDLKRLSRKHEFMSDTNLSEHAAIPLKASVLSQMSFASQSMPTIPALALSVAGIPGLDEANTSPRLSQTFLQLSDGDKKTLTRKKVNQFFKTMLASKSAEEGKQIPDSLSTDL
compound,measurement,setting,value
O=C1NN(c2ccccc2)C(=O)/C1=C/C=C/c1ccccc1Cl,IC50,[1],22.8 µM
CC(=O)N[C@@H](CSSCCCOC(=O)Oc1ccc2nc(C3=N[C@@H](C(C)=O)CS3)sc2c1)C(=O)N[C@H]1CSSC[C@@H](C(=O)N[C@@H](CCCNC(=N)N)C(=O)N[C@@H](CCCNC(=N)N)C(=O)N[C@@H](CCCNC(=N)N)C(=O)N[C@H](C(=O)N[C@@H](CCCNC(=N)N)C(=O)N[C@H](C(=O)N[C@@H](CC(C)C)C(=O)N[C@@H](CCCCN)C(=O)N[C@@H](CCCNC(=N)N)C(=O)N[C@@H](Cc2c[nH]c3ccccc23)C(=O)N[C@@H](CCCCN)C(=O)N[C@@H](CC(C)C)C(=O)N[C@@H](Cc2ccccc2)C(N)=O)C(C)C)[C@@H](C)O)NC(=O)[C@H](Cc2c[nH]c3ccccc23)NC(=O)[C@@H]2CCCN2C(=O)[C@H](Cc2ccc(O)cc2)NC(=O)CNC(=O)[C@H](Cc2cnc[nH]2)NC(=O)[C@H](Cc2ccc(O)cc2)NC(=O)[C@H](CCCCN)NC(=O)[C@H](C)NC(=O)[C@H](C(C)C)NC1=O (Ac-C(X2)CVAKYHGYPWCRRRTRVLKRWKLF-NH2; disulfide 2-12),viability at 50 µM,[2],85.9%
same,fold change (FC),[3],66.8
same,viability at 25 µM,in vitro [4],97.1%
same,viability at 6.3 µM,in vitro [5],99.1%
same,viability at 12.5 µM,in vitro [6],108%
CC(=O)N[C@H]1CSSC[C@@H](C(=O)N[C@@H](CCCNC(=N)N)C(=O)N[C@@H](CCCNC(=N)N)C(=O)N[C@@H](CCCNC(=N)N)C(N)=O)NC(=O)[C@H](Cc2c[nH]c3ccccc23)NC(=O)[C@@H]2CCCN2C(=O)[C@H](Cc2ccc(O)cc2)NC(=O)CNC(=O)[C@H](Cc2cnc[nH]2)NC(=O)[C@H](Cc2ccc(O)cc2)NC(=O)[C@H](CCCCN)NC(=O)[C@H](C)NC(=O)[C@H](C(C)C)NC1=O (Ac-CVAKYHGYPWCRRR-NH2; disulfide 1-11),inhibition,Mino [7],Active
same,IC50,[8],0.011 µM
same,inhibition,Mino [9],Active
CC(=O)N[C@H]1CSSC[C@@H](C(=O)N[C@@H](CCCNC(=N)N)C(=O)N[C@@H](CCCNC(=N)N)C(=O)N[C@@H](CCCNC(=N)N)C(=O)N[C@@H](C)C(=O)N[C@@H](CC(C)C)C(=O)N[C@@H](Cc2c[nH]c3ccccc23)C(=O)N[C@@H](CCCCN)C(=O)N[C@H](C(=O)N[C@@H](CC(C)C)C(=O)N[C@@H](CC(C)C)C(=O)N[C@@H](CCCCN)C(=O)N[C@@H](CCCCN)C(=O)N[C@H](C(=O)N[C@@H](CC(C)C)C(=O)N[C@@H](CCCCN)C(=O)N[C@@H](C)C(=O)N2CCC[C@H]2C(=O)N[C@@H](CCCCN)C(=O)N[C@@H](CCCCN)C(=O)N[C@@H](CCCCN)C(=O)N[C@@H](CCCNC(=N)N)C(=O)N[C@@H](CCCCN)C(=O)N[C@H](C(N)=O)C(C)C)C(C)C)[C@@H](C)O)NC(=O)[C@H](Cc2c[nH]c3ccccc23)NC(=O)[C@@H]2CCCN2C(=O)[C@H](Cc2ccc(O)cc2)NC(=O)CNC(=O)[C@H](Cc2cnc[nH]2)NC(=O)[C@H](Cc2ccc(O)cc2)NC(=O)[C@H](CCCCN)NC(=O)[C@H](C)NC(=O)[C@H](C(C)C)NC1=O (Ac-CVAKYHGYPWCRRRALWKTLLKKVLKAPKKKRKV-NH2; disulfide 1-11),inhibition,Mino [10],Active
same,IC50,[8],0.071 µM
same,inhibition,Mino [9],Active
CCCC[C@H](NC(=O)[C@H](CCCNC(=N)N)NC(=O)[C@H](CCCNC(=N)N)NC(=O)[C@H](CC(N)=O)NC(=O)[C@H](CCC(N)=O)NC(=O)[C@H](Cc1ccccc1)NC(=O)[C@H](Cc1c[nH]c2ccccc12)NC(=O)[C@@H](NC(=O)[C@H](CCCCN)NC(=O)[C@@H](NC(=O)[C@H](CCC(N)=O)NC(=O)[C@H](CCCNC(=N)N)NC(=O)[C@H](CCCNC(=N)N)NC(=O)[C@H](CCCNC(=N)N)NC(=O)[C@H](CCCNC(=N)N)NC(=O)[C@@H]1CSSC[C@H](NC(C)=O)C(=O)N[C@@H](C(C)C)C(=O)N[C@@H](C)C(=O)N[C@@H](CCCCN)C(=O)N[C@@H](Cc2ccc(O)cc2)C(=O)N[C@@H](Cc2cnc[nH]2)C(=O)NCC(=O)N[C@@H](Cc2ccc(O)cc2)C(=O)N2CCC[C@H]2C(=O)N[C@@H](Cc2c[nH]c3ccccc23)C(=O)N1)[C@@H](C)CC)[C@@H](C)CC)C(=O)N[C@@H](CCCCN)C(=O)N[C@@H](Cc1c[nH]c2ccccc12)C(=O)N[C@@H](CCCCN)C(=O)N[C@@H](CCCCN)C(N)=O (Ac-CVAKYHGYPWCRRRRQIKIWFQNRR[Nle]KWKK-NH2; disulfide 1-11),inhibition,Mino [10],Active
same,IC50,[8],0.095 µM
same,inhibition,Mino [9],Active
CC(=O)N[C@H]1CSSC[C@@H](C(=O)N[C@@H](CCCNC(=N)N)C(=O)N[C@@H](CCCNC(=N)N)C(=O)N[C@@H](CCCNC(=N)N)C(=O)N[C@@H](CCCNC(=N)N)C(=O)N[C@@H](CCCNC(=N)N)C(=O)N[C@@H](CCCNC(=N)N)C(=O)N[C@@H](CCCNC(=N)N)C(=O)N[C@@H](CCCNC(=N)N)C(N)=O)NC(=O)[C@H](Cc2c[nH]c3ccccc23)NC(=O)[C@@H]2CCCN2C(=O)[C@H](Cc2ccc(O)cc2)NC(=O)CNC(=O)[C@H](Cc2cnc[nH]2)NC(=O)[C@H](Cc2ccc(O)cc2)NC(=O)[C@H](CCCCN)NC(=O)[C@H](C)NC(=O)[C@H](C(C)C)NC1=O (Ac-CVAKYHGYPWCRRRRRRRR-NH2; disulfide 1-11),inhibition at 10 µM,[11],> 89%
same,inhibition at 3.3 µM,[12],> 89%
same,IC50,[8],0.008 µM
same,inhibition,Mino [9],Active
CC(=O)N[C@H]1CSSC[C@@H](C(=O)N[C@@H](CCCNC(=N)N)C(=O)N[C@@H](CCCNC(=N)N)C(=O)N[C@@H](CCCNC(=N)N)C(=O)N[C@H](C(=O)N[C@@H](CCCNC(=N)N)C(=O)N[C@H](C(=O)N[C@@H](CC(C)C)C(=O)N[C@@H](CCCCN)C(=O)N[C@@H](CCCNC(=N)N)C(=O)N[C@@H](Cc2c[nH]c3ccccc23)C(=O)N[C@@H](CCCCN)C(=O)N[C@@H](CC(C)C)C(=O)N[C@@H](Cc2ccccc2)C(N)=O)C(C)C)[C@@H](C)O)NC(=O)[C@H](Cc2c[nH]c3ccccc23)NC(=O)[C@@H]2CCCN2C(=O)[C@H](Cc2ccc(O)cc2)NC(=O)CNC(=O)[C@H](Cc2cnc[nH]2)NC(=O)[C@H](Cc2ccc(O)cc2)NC(=O)[C@H](CCCCN)NC(=O)[C@H](C)NC(=O)[C@H](C(C)C)NC1=O (Ac-CVAKYHGYPWCRRRTRVLKRWKLF-NH2; disulfide 1-11),inhibition at 10 µM,[11],> 89%
same,inhibition at 3.3 µM,[12],> 89%
same,IC50,[8],0.031 µM
same,inhibition,Mino [9],Active
CC(C)C[C@H](N)C(=O)N[C@@H](CC(N)=O)C(=O)N[C@@H](CCCNC(=N)N)C(=O)N[C@H]1CSSC[C@@H](C(=O)N[C@@H](CCCNC(=N)N)C(=O)N[C@@H](CCCNC(=N)N)C(=O)N[C@@H](CCCNC(=N)N)C(=O)O)NC(=O)[C@H](Cc2c[nH]c3ccccc23)NC(=O)[C@@H]2CCCN2C(=O)[C@H](Cc2ccc(O)cc2)NC(=O)CNC(=O)[C@H](Cc2cnc[nH]2)NC(=O)[C@H](Cc2ccc(O)cc2)NC(=O)[C@H](CCCCN)NC(=O)[C@H](C)NC(=O)[C@H](C(C)C)NC1=O (H-LNRCVAKYHGYPWCRRR-OH; disulfide 4-14),IC50,[13],0.006 µM
same,IC50,[14],0.035 µM
